Test results: article PMC9896555, “Cyclic Acetals as Novel Long-Lasting Mosquito Repellents” (Journal of Agricultural and Food Chemistry, 2023)
Where “and” joins values, the source holds several entries; their conditions need not be identical. Equal entries are not always repeated. Entries after “also recorded” stand apart in the source; their conditions may differ. Where two headings read alike, the source gives them in different places.

Legend:
Aedes albopictus [1] = experiment: Effective dose / protection efficacy, human-bait technique; format: in vivo; conditions: for pest or weed control at 0.081 µg/cm2, 0.081 µg/cm2 / pest or weed control at 0.17 µg/cm2, 0.17 µg/cm2 / pest or weed control at 0.33 µg/cm2, 0.33 µg/cm2 / pest or weed control at 0.5 µg/cm2, 0.5 µg/cm2 / pest or weed control at 0.83 µg/cm2, 0.83 µg/cm2 / pest or weed control at 1.7 µg/cm2, 1.7 µg/cm2 / pest or weed control at 8.3 µg/cm2, 8.3 µg/cm2 / pest or weed control at 16.7 µg/cm2, 16.7 µg/cm2 / pest or weed control at 83.3 µg/cm2, 83.3 µg/cm2: Aedes albopictus, topical, read-out: Protection efficacy PE%; for Protection efficacy (dose to obtain complete protection (100%) from bite attempts): applied on skin of volunteers, 3 min exposure
Aedes albopictus [2] = experiment: Protection time at 0.17 mg/cm2, human-bait technique; format: in vivo; conditions: for pest or weed control at 0.17 mg/cm2, 0.17 mg/cm2: Aedes albopictus, topical, read-out: Protection time PE%; for Average PT >95% (% coefficient of variation) / Estimated 100% PT (complete protection time, mean±SE): at the dose of 0.17mg/cm2; for Estimated 100% PT (complete protection time, mean±SE): Kaplan–Meier estimate; for Protection time (95% protection): dose of 0.17 mg/cm^2, tests ended after 8 h
Summary of the method: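 Human-bait test with 100 μL of 5% ethanol solution applied to skin (0.17 mg/cm2); ethanol-treated hand as negative control. Repellency checked hourly up to 8 h on up to 8 volunteers; protection time taken as mean time with >95% protection, complete protection time estimated by Kaplan–Meier.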

HaCaT cells = experiment: Cytotoxicity on human keratinocytes (MTS); format: cell-based; conditions: 82 μg/mL, 24 h
Description: HaCaT cells were cultured in 5% CO2 at 37 °C in Dulbecco’s modified Eagle’s medium (DMEM), supplemented with 10% fetal bovine serum (FBS), 1% L-glutamine ([…]), and 1% penicillin–streptomycin (Thermo Fisher Scientific, Rodano, Milan, Italy). […] Experiments were performed in triplicate.

Caco-2 monolayer = experiment: Transwell permeation test; format: in vitro ADME; conditions: 82 μg/mL apical, 3 h
Description: To evaluate the possibility of absorption after topical application, we tested the permeation through a Caco-2 monolayer for those compounds best performing in terms of protection time and cytotoxicity. The colorectal adenocarcinoma cell line Caco-2 was purchased from ATCC and cultured in DMEM with 20% FBS, L-glutamine (2 mM), and 1% penicillin–streptomycin 100 U/mL (Thermo Fisher Scientific, Rodano, Milan, Italy) in 5% CO2 at 37 °C.
For the permeation studies, Caco-2 cells, a model of epithelial cells, were seeded into 12-well PET Transwell plates (1.13 cm^2 growth surface area and pore size 0.4 μm, Greiner Bio-One, Milan, Italy) at a density of 2 × 10^5 cells/cm^2 and grown for 21 days to form a confluent monolayer. The integrity of the cellular barrier was then assessed using Lucifer Yellow (LY) permeability test, before the experiments.[33]
After washing, the monolayers were preincubated for 20 min at 37 °C with 0.5 and 1.5 mL of the incubation medium, HBSS/HEPES 25 mM in the apical and basolateral sides, respectively. […] At the end of the experiment, the layer integrity was re-evaluated. […]
One hundred microliters of the collected media was extracted in 100 μL of heptane by vortexing the vial for 2 min; 70 μL of this solution was recovered; and 1 μL was injected in a 7820 GC system-5977B MSD system and analyzed under the same conditions reported in paragraph 2.2. […]

RAW 264.7 = experiment: Immunogenicity on murine macrophages (nitric oxide release); format: cell-based; conditions: RAW264.7, 82 μg/mL, 6 h
Description: Cells were cultured in DMEM, with 10% FBS, 1% L-glutamine (2 mM), and 1% penicillin–streptomycin 100 U/mL at 37 °C in an atmosphere containing 5% CO2. RAW264.7 were seeded (1 × 10^5 cells/well) and exposed to five derivatives or Icaridin, at 82 μg/mL or to LPS (1 μg/mL) as a positive control, for 3 and 6 h. After that, nitric oxide release was determined in the culture media as previously described.[32] Experiments were performed in triplicate.

Row | SMILES | pest or weed control at 0.081 µg/cm2, 0.081 µg/cm2 (Aedes albopictus [1]) | pest or weed control at 0.17 µg/cm2, 0.17 µg/cm2 (Aedes albopictus [1]) | pest or weed control at 0.33 µg/cm2, 0.33 µg/cm2 (Aedes albopictus [1]) | pest or weed control at 0.5 µg/cm2, 0.5 µg/cm2 (Aedes albopictus [1]) | pest or weed control at 0.83 µg/cm2, 0.83 µg/cm2 (Aedes albopictus [1]) | pest or weed control at 1.7 µg/cm2, 1.7 µg/cm2 (Aedes albopictus [1]) | pest or weed control at 8.3 µg/cm2, 8.3 µg/cm2 (Aedes albopictus [1]) | pest or weed control at 16.7 µg/cm2, 16.7 µg/cm2 (Aedes albopictus [1]) | pest or weed control at 83.3 µg/cm2, 83.3 µg/cm2 (Aedes albopictus [1]) | Protection efficacy (dose to obtain complete protection (100%) from bite attempts) (Aedes albopictus [1]) | pest or weed control at 0.17 mg/cm2, 0.17 mg/cm2 (Aedes albopictus [2]; 0.17mg/cm2, 1 h) | pest or weed control at 0.17 mg/cm2, 0.17 mg/cm2 (Aedes albopictus [2]; 0.17mg/cm2, 2 h) | pest or weed control at 0.17 mg/cm2, 0.17 mg/cm2 (Aedes albopictus [2]; 0.17mg/cm2, 3 h) | pest or weed control at 0.17 mg/cm2, 0.17 mg/cm2 (Aedes albopictus [2]; 0.17mg/cm2, 4 h) | pest or weed control at 0.17 mg/cm2, 0.17 mg/cm2 (Aedes albopictus [2]; 0.17mg/cm2, 5 h) | pest or weed control at 0.17 mg/cm2, 0.17 mg/cm2 (Aedes albopictus [2]; 0.17mg/cm2, 6 h) | pest or weed control at 0.17 mg/cm2, 0.17 mg/cm2 (Aedes albopictus [2]; 0.17mg/cm2, 7 h) | pest or weed control at 0.17 mg/cm2, 0.17 mg/cm2 (Aedes albopictus [2]; 0.17mg/cm2, 8 h) | Average PT >95% (% coefficient of variation) (Aedes albopictus [2]) | Estimated 100% PT (complete protection time, mean±SE) (Aedes albopictus [2]) | other results
1 | OCC1COC2(CCCCCCC2)O1 (stereo not shown) [12a] | 46.3% | 58.9% | 62.2% | 87% | 90.7% | 100% | 100% | 100% | 100% | 1.7 μg/cm^2 | 100% | 100% | 100% | 100% | 100% | 97.1% | 96.9% | 100% | 480 (0) min | 380 ± 20 min | 100% PE (Aedes albopictus [1]; Table S1): 1.7 µg/cm2; Protection time (95% protection) (Aedes albopictus [2]): 8 h; survival of keratocytes (HaCaT cells): > 88% and 100%; permeability value lower compared to Icaridin (Caco-2 monolayer): 44%; immunogenicity (nitric oxide release / nitrite production), in words (RAW 264.7): did not exhibit immunogenicity; also recorded: indistinguishable from the negative control
2 | CC(C)CC1(CC(C)C)OCC(C)(CO)CO1 [17b] | 8.33% | 27.8% | 50.8% | 44.4% | 58.1% | 94.8% | 100% | 100% | 100% | 8.3 μg/cm^2 | 100% | 98.7% | 99.1% | 100% | 96.8% | 93.6% | 95.6% | 96.5% | 480 (5.0) min | 300 ± 94 min | Protection time (95% protection) (Aedes albopictus [2]): 8 h; survival of keratocytes (HaCaT cells): > 88% and 92%; permeability value lower compared to Icaridin (Caco-2 monolayer): 17%; immunogenicity (nitric oxide release / nitrite production), in words (RAW 264.7): did not exhibit immunogenicity; also recorded: indistinguishable from the negative control
